Results as given in patent publication US11931423B2, “Glucose oxidase-nanoparticle bioconjugates for cancer treatment” (UNIVERSITY OF PITTSBURGH—OF THE COMMONWEALTH SYSTEM OF …, priority 2017, dated 2024).

System: A431 cells with high EGFR expression
Test: A431 cell viability (CellTiter-Glo viability assay)
Assay type: cell-based
Conditions: Homo sapiens, A-431, 50 μM (30 μg/mL), after 24 h, PBS = 100% viability
Protocol: As a comparison, the A431 cells were also treated with SPION alone, a mixture of unconjugated SPION and GOx, and doxorubicin (a chemotherapy drug).
A431 cancer cells were purchased from ATCC. They were cultured in Dulbecco's Modified Eagle Medium (DMEM) containing 10% FBS, penicillin (100 U/mL), and streptomycin (100 μg/mL) at 37° C. in a humidified atmosphere containing 5% CO2 and 95% air.
50 μL SPION, the mixture of GOx and SPION without conjugation, mAb-GOx-SPION, doxorubicin, or PBS (as a control) were each added to a 96-well plate seeded with A431 cancer cells, followed by addition of 100 μL of DMEM containing 4 g/L glucose. After being incubated for various amounts of time, the cells were washed with PBS 3 times. 100 μL DMEM was added before cell viability was measured by using a CellTiter-Glo viability assay kit.
The cytotoxic effects of the system as functions of the concentrations of both cetuximab-GOx-SPION and glucose were investigated. 50 μL cetuximab-GOx-SPION (1.0 μg/mL) was added to 96-well plates seeded with A431 and HeLa cancer cells, followed by addition of 100 μL of DMEM that contains glucose at 20 g/L. After 1.5 h incubation, the cells were washed with PBS 3 times and then cultured in 200 μL of DMEM. After being incubated for another 12 h, cell viability was measured by using CellTiter-Glo viability assay kit. […]

Q: Which viability at 50 µM does the source give for `COc1cccc2c1C(=O)c1c(O)c3c(c(O)c1C2=O)C[C@@](O)(C(=O)CO)C[C@@H]3O[C@H]1C[C@H](N)[C@H](O)[C@H](C)O1` [doxorubicin] here?
A: ~3%
